Where two headings read alike, the source gives them in different places.
Experiments:
[1] = system: Plasmodium falciparum 7G8(Cq-res); details: read-out: Plasmodium falciparum IC50
[2] = mice
[3] = system: Plasmodium falciparum K1(Cq-res); details: read-out: Plasmodium falciparum IC50
[4] = system: Plasmodium falciparum DD2(Cq-res); details: read-out: Plasmodium falciparum IC50
[5] = system: Plasmodium berghei K173; details: multiple oral administrations, NMRI female mice, FIG. 7
[6] = system: Plasmodium falciparum 3D7; experiment: Plasmodium falciparum assay; format: cell-based
[7] = Determination of metabolic stability (liver microsomes); format: in vitro ADME; details: rat liver microsomes, 20 μM, 15 min
In short: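 Wistar rat liver microsomes (0.25 mg/ml) in 2% sodium bicarbonate with NADPH-generating system plus UDPGA for glucuronidation; test article at 20 μM final, 15 min at 37° C, after 5 min pre-incubation. Reactions stopped with acetonitrile; remaining compound analysed by HPLC against microsome-free blanks, triplicates.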

In the case of CN(C)CCOc1ccc(-c2ccccc2C(F)(F)F)cc1/C=C/C(=O)c1ccccc1CN(C)C [Compound C130, (E)-3-[4-(2-Dimethylamino-ethoxy)-2′-trifluoromethyl-biphenyl-3-yl]-1-(2-dimethylaminomethyl-phenyl)-propenone], the IC50 [1] is reported as 50 nM, the Metabolic turn-over [2] is reported as 77% and the IC50 [3] is reported as 40 nM. For the same compound, the IC50 [4] was 60 nM, the “effect on development of the infection” value [5] was “inhibit the development of the infection” and the IC50 ([6]; 3D7(Cq-sen) (Table 3), read-out: Plasmodium falciparum IC50) was 30 nM. For the same compound, the IC50 ([6]; Plasmodium falciparum 3D7 (Table 2), read-out: IC50) was 30 nM, the “times more potent than LicA” value ([6]; dose-response curve at Plasmodium falciparum, FIG. 4) was 213 times and the “Metabolic turn-over in vitro” value [7] was 6%.
